# Laboratory results as given in US20050032866A1, “The use of 5ht4 receptor antagonists in the prophylaxis or treatment of certain cardiovascular conditions” (priority 2000, published 2005).
# Assays:
# 5-HT1A = 5-HT1A (Homo sapiens, UniProt P08908); assay: receptor binding studies, 5-HT1A; details: read-out: pKd 5-HT1A (converted)
# D3 = D3 (Homo sapiens, UniProt P35462); assay: receptor binding studies, D3; details: read-out: pKd D3 (converted)
# 5-HT4 receptor [1] = biological target: T1, 5-HT4 receptor (Cavia porcellus, UniProt O70528); assay: guinea pig distal colon longitudinal muscle-myenteric plexus, 5-HT-evoked contraction; assay type: cell-based
# T1 construct: Longitudinal muscle-myenteric plexus preparations, approximately 3 cm long, are obtained from the distal colon region; from tissue; host or cells: guinea-pig distal colon longitudinal muscle-myenteric plexus
# Experimental: Male guinea-pigs, weighing 250-400 g are used.
# (§1) In some experiments, this tissue was dosed alternately with an approximately equi-effective concentration of the nicotine receptor stimulant, dimethylphenylpiperazinium (DMPP).
# 5-HT1D = 5-HT1D (Homo sapiens, UniProt P28221); assay: receptor binding studies, 5-HT1D; details: read-out: pKd 5-HT1D (converted)
# Opiate mu = Opiate mu (Homo sapiens, UniProt P35372); assay: receptor binding studies, Opiate mu; details: read-out: pKi Opiate mu (converted)
# Opiate delta = Opiate delta (Homo sapiens, UniProt P41143); assay: receptor binding studies, Opiate delta; details: read-out: pKi Opiate delta (converted)
# [2] = system: social interaction in rats; assay: social interaction test in rats (anxiolytic activity); assay type: in vivo, rat
# Experimental: Rats (male, Sprague Dawleys, Charles River, 250-300 g) are housed in groups of eight in a holding room for 5 days. They are then housed singly in a room adjacent to the experimental room for 4 days prior to the experimental day. On the experimental day rats are administered vehicle, test compound or a benzodiazepine anxiolytic, chlordiazepoxide, p.o. in pairs (n=8-16), at 15 minute intervals beginning at 10.00 a.m. […] The box is made of white perspex 54 cm×37 cm×26 cm with a transparent perspex front side and no lid. The floor is divided up into 24 squares and the box is brightly lit (115 lux). Active social interactive behaviours (grooming, sniffing, climbing over or under, following, biting, mounting and boxing) are scored blind for the next 15 min by remote video monitoring to give total interaction scores. The number of squares crossed by each rat is also scored and summed. After the end of each test the box is carefully wiped.
# 5-HT4 receptor [3] = assay: 5-HT-induced motility in dog Heidenhain gastric pouch; assay type: in vivo
# Experimental: Compounds are tested for inhibition in the in vivo method described in “Stimulation of canine motility by BRL 24924, a new gastric prokinetic agent”, Bermudez et al, J. Gastrointestinal Motility, 1990, 2(4), 281-286.
# Dogs with previously prepared Heidenhain gastric pouches are fasted overnight.
# 5-HT4 receptors = assay: antagonism of 5-HT-evoked tachycardia in anaesthetised piglets; assay type: in vivo, piglet
# Excerpt: All experiments were in 2-5 day old piglets in which the vagi were sectioned.
# GABA = assay: receptor binding studies, GABA
# 5-HT2C = 5-HT2C (Homo sapiens, UniProt P28335); assay: receptor binding studies, 5-HT2C; details: read-out: pKd 5-HT2C (converted)
# Alpha1 = assay: receptor binding studies, Alpha1
# D2 = D2 (Homo sapiens, UniProt P14416); assay: receptor binding studies, D2; details: read-out: pKd D2 (converted)
# H1 = H1 (Homo sapiens, UniProt P35367); assay: receptor binding studies, H1; details: read-out: pKd H1 (converted)
# 5-HT3 = 5-HT3 (Homo sapiens, UniProt P46098); assay: receptor binding studies, 5-HT3; details: read-out: pKd 5-HT3 (converted)
# [4] = system: DMPP-evoked contractions (nicotinic receptor agonist); assay: guinea pig colon, DMPP-evoked contractions; assay type: cell-based; details: 10^−5M
# Experimental: as §1
# Opiate kappa = Opiate kappa (Homo sapiens, UniProt P41145); assay: receptor binding studies, Opiate kappa; details: read-out: pKi Opiate kappa (converted)
# 5-HT2A = 5-HT2A (Homo sapiens, UniProt P28223); assay: receptor binding studies, 5-HT2A; details: read-out: pKd 5-HT2A (converted)
# 5-HT4 receptor [5] = biological target: T2, 5-HT4 receptor (Rattus norvegicus, UniProt Q62758); assay: rat oesophageal tunica muscularis mucosae, relaxation to 5-HT; assay type: cell-based
# T2 construct: The inner smooth muscle tube of the muscularis mucosae is isolated and mounted for isometric tension recording; from tissue; host or cells: rat oesophageal tunica muscularis mucosae
# Excerpt: Rat oesophageal tunica muscularis mucosae is set up according to Baxter et. al. Naunyn-Schmiedeberg's Arch.
# 5-HT2B receptor = biological target: T3, 5-HT2B receptor (Rattus norvegicus, UniProt P30994); assay: functional studies on the rat stomach fundus; assay type: cell-based
# T3 construct: from tissue; host or cells: rat stomach fundus
# BDZ = assay: receptor binding studies, BDZ
# 5-HT1E = 5-HT1E (Homo sapiens, UniProt P28566); assay: receptor binding studies, 5-HT1E; details: read-out: pKd 5-HT1E (converted)
# Chain of 5-HT1E (P28566 whole entry, species assumed): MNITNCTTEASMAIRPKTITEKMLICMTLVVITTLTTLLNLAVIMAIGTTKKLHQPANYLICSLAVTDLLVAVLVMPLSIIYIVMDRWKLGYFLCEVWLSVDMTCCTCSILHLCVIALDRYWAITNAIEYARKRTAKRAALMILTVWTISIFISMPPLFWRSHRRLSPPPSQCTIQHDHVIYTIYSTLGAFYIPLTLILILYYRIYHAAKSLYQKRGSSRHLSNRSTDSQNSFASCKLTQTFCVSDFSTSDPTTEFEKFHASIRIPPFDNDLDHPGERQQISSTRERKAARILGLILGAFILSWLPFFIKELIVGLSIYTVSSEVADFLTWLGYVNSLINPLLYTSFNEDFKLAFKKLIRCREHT
# T1 sequence (O70528 whole entry): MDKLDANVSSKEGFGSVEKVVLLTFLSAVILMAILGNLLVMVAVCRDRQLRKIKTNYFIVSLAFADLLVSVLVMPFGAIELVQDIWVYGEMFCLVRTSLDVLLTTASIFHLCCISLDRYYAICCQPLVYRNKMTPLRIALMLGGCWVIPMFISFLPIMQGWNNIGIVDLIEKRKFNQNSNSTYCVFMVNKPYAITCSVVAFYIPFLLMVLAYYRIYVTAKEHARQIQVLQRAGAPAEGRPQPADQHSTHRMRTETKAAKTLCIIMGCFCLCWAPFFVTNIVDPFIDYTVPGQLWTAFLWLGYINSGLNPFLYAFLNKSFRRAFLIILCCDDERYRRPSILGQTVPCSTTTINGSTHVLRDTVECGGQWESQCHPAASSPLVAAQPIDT
# Chain of 5-HT3 (P46098 24-478, species assumed): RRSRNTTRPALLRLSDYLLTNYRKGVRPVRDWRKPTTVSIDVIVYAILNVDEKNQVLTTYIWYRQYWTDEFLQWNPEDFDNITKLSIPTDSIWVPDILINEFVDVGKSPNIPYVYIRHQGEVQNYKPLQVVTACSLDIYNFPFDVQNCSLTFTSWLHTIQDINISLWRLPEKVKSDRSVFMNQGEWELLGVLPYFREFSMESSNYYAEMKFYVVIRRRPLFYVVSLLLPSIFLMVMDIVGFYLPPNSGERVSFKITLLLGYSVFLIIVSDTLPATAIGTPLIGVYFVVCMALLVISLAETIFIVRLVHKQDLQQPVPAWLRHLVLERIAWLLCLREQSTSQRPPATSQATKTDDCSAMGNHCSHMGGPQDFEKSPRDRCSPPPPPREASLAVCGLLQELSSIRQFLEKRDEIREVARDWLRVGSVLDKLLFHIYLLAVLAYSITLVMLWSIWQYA
# Chain of D2 (P14416 whole entry): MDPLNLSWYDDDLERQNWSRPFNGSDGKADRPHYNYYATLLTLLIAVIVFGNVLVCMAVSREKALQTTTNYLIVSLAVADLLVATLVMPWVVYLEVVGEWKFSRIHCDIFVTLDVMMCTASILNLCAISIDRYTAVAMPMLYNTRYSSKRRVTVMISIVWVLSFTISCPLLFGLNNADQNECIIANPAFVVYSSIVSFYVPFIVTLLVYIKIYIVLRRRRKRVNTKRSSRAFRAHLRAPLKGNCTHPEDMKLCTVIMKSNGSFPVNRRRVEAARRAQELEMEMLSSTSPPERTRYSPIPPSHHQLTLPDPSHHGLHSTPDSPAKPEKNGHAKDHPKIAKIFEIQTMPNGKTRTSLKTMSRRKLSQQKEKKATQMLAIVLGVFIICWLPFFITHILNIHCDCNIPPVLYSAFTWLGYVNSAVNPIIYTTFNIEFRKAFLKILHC
# Chain of 5-HT1A (P08908 whole entry, species assumed): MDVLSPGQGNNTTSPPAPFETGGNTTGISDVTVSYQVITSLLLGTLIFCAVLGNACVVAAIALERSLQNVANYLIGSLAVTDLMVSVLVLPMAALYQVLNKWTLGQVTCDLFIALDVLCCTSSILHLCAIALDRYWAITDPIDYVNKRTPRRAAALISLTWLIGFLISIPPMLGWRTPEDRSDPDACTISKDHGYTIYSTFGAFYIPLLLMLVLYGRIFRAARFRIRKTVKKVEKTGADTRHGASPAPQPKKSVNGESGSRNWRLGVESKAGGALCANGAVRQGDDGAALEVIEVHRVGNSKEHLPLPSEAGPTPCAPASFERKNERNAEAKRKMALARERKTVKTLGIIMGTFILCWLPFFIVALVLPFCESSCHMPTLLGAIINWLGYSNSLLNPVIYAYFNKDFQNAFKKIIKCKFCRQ
# T3 sequence (P30994 whole entry): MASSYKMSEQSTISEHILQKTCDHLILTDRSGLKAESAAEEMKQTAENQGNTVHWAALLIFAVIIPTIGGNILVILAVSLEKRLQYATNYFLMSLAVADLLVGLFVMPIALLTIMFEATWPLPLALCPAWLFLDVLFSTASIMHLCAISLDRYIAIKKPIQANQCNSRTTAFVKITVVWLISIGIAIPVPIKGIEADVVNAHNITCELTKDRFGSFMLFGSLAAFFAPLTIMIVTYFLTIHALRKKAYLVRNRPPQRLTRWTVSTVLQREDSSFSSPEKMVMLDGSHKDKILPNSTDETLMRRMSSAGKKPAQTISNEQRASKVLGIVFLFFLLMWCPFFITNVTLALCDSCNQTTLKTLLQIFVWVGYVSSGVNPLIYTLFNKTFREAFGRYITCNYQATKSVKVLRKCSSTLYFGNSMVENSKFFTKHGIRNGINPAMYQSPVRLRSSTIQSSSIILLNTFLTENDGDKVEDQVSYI
# Chain of D3 (P35462 whole entry): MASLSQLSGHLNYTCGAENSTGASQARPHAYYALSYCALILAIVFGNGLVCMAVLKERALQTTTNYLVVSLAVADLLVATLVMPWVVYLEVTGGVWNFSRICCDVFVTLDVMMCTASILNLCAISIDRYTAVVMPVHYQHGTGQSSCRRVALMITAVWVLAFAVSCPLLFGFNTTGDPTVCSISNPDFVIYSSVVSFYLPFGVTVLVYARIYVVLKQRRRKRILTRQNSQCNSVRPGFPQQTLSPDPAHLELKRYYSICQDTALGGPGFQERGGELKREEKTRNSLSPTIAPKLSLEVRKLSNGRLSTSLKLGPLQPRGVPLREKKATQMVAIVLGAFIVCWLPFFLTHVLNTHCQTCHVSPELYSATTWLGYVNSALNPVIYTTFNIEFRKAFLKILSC
# Chain of 5-HT2C (P28335 33-458, species assumed): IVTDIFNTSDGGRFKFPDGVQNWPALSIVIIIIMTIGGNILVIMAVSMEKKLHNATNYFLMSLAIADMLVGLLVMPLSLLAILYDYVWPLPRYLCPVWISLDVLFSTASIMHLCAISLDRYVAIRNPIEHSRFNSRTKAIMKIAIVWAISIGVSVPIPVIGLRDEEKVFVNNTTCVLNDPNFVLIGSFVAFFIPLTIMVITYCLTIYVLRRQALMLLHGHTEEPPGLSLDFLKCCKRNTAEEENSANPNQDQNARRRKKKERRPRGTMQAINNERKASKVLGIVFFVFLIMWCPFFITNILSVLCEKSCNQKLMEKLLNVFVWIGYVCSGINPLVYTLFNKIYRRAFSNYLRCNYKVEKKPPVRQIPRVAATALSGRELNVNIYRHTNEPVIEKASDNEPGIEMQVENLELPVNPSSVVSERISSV
# Chain of Opiate kappa (P41145 whole entry): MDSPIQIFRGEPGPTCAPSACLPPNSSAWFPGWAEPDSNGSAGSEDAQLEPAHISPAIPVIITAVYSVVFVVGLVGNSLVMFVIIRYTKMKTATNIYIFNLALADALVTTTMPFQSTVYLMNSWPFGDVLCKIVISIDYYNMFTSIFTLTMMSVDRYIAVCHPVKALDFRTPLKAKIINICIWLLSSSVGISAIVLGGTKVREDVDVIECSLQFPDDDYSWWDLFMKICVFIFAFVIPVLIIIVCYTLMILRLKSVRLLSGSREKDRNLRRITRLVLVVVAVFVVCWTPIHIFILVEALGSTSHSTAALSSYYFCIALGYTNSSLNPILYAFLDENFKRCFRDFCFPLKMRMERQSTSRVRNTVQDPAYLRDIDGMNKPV
# T2 sequence (Q62758 whole entry): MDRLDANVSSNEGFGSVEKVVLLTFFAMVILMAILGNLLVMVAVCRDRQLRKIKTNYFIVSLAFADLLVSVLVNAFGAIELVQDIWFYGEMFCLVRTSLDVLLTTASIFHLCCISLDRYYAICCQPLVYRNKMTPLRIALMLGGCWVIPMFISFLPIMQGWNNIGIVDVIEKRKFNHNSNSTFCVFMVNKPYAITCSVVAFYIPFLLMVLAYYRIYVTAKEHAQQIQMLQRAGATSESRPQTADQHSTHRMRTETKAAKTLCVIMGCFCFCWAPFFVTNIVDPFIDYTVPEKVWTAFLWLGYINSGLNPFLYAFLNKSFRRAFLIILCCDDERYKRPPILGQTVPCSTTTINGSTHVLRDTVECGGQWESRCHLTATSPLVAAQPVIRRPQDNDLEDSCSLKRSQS
# Chain of H1 (P35367 whole entry): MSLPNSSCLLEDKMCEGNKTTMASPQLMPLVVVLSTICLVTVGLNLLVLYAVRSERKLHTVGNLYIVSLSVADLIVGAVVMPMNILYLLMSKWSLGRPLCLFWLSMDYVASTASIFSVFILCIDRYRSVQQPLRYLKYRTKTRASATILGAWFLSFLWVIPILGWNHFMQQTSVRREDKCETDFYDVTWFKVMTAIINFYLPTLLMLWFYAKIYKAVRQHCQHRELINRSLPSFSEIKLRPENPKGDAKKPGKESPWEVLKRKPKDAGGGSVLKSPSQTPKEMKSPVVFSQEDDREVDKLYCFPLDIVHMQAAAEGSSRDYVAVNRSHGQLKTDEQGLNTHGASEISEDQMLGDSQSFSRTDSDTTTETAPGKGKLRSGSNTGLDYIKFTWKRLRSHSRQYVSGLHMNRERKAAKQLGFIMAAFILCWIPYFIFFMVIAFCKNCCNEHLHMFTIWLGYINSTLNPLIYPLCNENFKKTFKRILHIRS
smiles,measurement,setting,value
"CCCCN1CCC(CNC(=O)c2c3n(c4ccccc24)CCCO3)CC1 [SB-207266-A, N-[(1-^nbutyl-4-piperidinyl)methyl]-3,4-dihydro-2H-[1,3]oxazino[3,2-a]indole-10-carboxamide]",Kd,5-HT1A,> 10000 nM
same,Kd,D3,2950 nM
same,contraction evoked by the 5-HT4 receptor partial agonist BIMU 1,5-HT4 receptor [1],reduced the maximum response to BIMU 1
same,maximum response to 5-HT,5-HT4 receptor [1]; 3×10^−8 M and above,reduced in a concentration-dependent manner
same,time for recovery of responses to 5-HT upon washout,5-HT4 receptor [1]; highest concentrations (which reduce maximum 5-HT-evoked contractions),≤ 90 min
same,Kd,5-HT1D,> 10000 nM
same,Ki,Opiate mu,< 1000 nM
same,Ki,Opiate delta,< 1000 nM
same,total interaction scores,"[2]; 0.01, 1, 10 mg.kg^−1, 1 h after administration",Significantly increased
same,locomotion during the test,"[2]; rat, in vivo",not accompanied by any alteration in locomotion
same,effect on basal motility,5-HT4 receptor [3]; any dose,no effect
same,"ID50, antagonism of the contractile response to 5-HT",5-HT4 receptor [3]; iv,1.3 (Confidence Limits 0.1-14.0) ug.kg^−1
same,"ID50, antagonism of the contractile response to 5-HT",5-HT4 receptor [3]; po,9.6 (CL 0.7-128) ug.kg^−1
same,antagonism of 5-HT-evoked tachycardia,"5-HT4 receptors; 0.1, 0.3 or 1.0 ugkg^−1 intravenously, n=2 each",antagonised the 5-HT-evoked tachycardia in a dose-dependent manner
same,recovery from antagonism,"5-HT4 receptors; 0.3, 1.0 ugkg^−1 i.v., over the duration of the experiment",incomplete
same,pKd GABA,GABA,>5.00
same,Kd,5-HT2C,2690 nM
same,pKd Alpha1,Alpha1,<5.52
same,Kd,D2,2340 nM
same,Kd,H1,3980 nM
same,Kd,5-HT3,1150 nM
same,DMPP-evoked contractions,[4],unaffected
same,Ki,Opiate kappa,< 1000 nM
same,Kd,5-HT2A,1290 nM
same,type of antagonism of 5-HT response,5-HT4 receptor [5],non-surmountable antagonist
same,affinity for the 5-HT2B receptor,5-HT2B receptor,7.47
same,pKd BDZ,BDZ,>5.00
same,Kd,5-HT1E,> 10000 nM
